What was measured:
[1] = test system: whole dorsal root ganglion (DRG); assay: neurite extension of whole dorsal root ganglion cultured on scaffolds; format: cell-based; conditions: DRG on PLLA/PLLA scaffolds with 100 nM bolus of exogenous E2 at the beginning of culture
Experimental: To examine the bioactivity of E2 released during poly(pro-drug) material degradation and the effects of sustained E2 release on neurons, whole dorsal root ganglion (DRG) were cultured on poly(pro-drug) material films to examine the ability of the poly(pro-drug) material to promote neurite extension. To analyze material-derived neurite extension, DRG were cultured onto three types of scaffolds: 1) PLLA fibers electrospun onto a PLLA film (PLLA/PLLA), 2) PLLA fibers electrospun on to a PLLA film with a 100 nM bolus of exogenous E2 at the beginning of culture (PLLA/PLLA+Exo E2), and 3) PLLA fibers electrospun onto a poly(pro-drug) material film (PLLA/P1). […] PLLA fibers were used in this experiment to isolate the effects of E2 released the poly(pro-drug) material as the only factor influencing DRG neurite extension.

[2] = not told

Row | Molecule | average neurite outgrowth from DRG [1] [μm] | Young's modulus (Er) [2] [GPa]
1 | C[C@]12CC[C@@H]3c4ccc(O)cc4CC[C@H]3[C@@H]1CC[C@@H]2O [E2, 17β-Estradiol] | 526.7±273.4 | 
2 | poly(L-lactic acid) [PLLA] |  | 5.38±1.06

Reference: patent US11202834B2, “Synthesis and processing of poly(pro-drug) materials for extended drug release and uses thereof” (RENSSELAER POLYTECHNIC INSTITUTE, priority 2018, dated 2021)
